The results in this text go back to patent publication US9428759B2, “Methods for increasing the production of phenolic compounds from Theobroma cacao” (Casa Luker S.A., priority 2012, dated 2016).

The subject of the test is cocoa callus. In words: Induction of cocoa callus development with 2,4-D and chitosan. The class given is cell-based, Theobroma cacao. The source says: After surface sterilization, seeds (grains) were subjected to induction of calluses in specific media for tissue cultures as follows (see Murashige, T. and Skoog, F. “A revised medium for rapid growth and bioassays with tobacco tissue cultures,” Physiologia Plantarum, 1962, Vol 15: 473-495). Disinfected cocoa seeds were submitted to extraction of embryonic cells under aseptic conditions, and transferred to growth medium (MS), which contains mineral salts and microelements, and which is enriched with myo-inositol (100 mg/L) and sucrose (30 g/L), with gellan gum (2.4 g/L) as a gelling agent. The cocoa explants were incubated under dark conditions for 7 days at 22-24° C. After the incubation period, the cocoa embryonic cells were subcultured in nutrient media with the same types of ingredients as the media mentioned above, but containing different concentrations of auxins (growth hormones 2,4-D), using […] (0, 0.1, 0.5, 1.0 and 2.0 mg/L). […]
Different concentrations including 0, 0.1, 0.2, 0.5, 1, 2, 4, mg/L of kinetin were evaluated. Also, kinetin was used with or without 2,4-D at concentration of 2 mg/L. The growth of calluses was evaluated after 100 days, and different parameters were used to determine the effects of the growth regulators on callus growth including % of disaggregation and height and diameter of the callus. […]

Turning to `O=C(O)COc1ccc(Cl)cc1Cl` [2,4 D, 2,4-dichlorophenoxyacetic acid], the “growth in cocoa calluses” value (2 mg/L, all three cocoa phenotypes, early stages of development) is on record as “induced larger growth”. For the same compound, the “% of Callus Development” value (2,4-D 2 mgL^−1, initial callus development, three cocoa phenotypes) worked out at 22.9167%.
